In patent US9809553B2, “Isoquinoline compounds, a process for their preparation, and pharmaceutical compositions containing them” (LES LABORATOIRES SERVIER, priority 2014, dated 2017):
Counter-ions that a name gives are not always drawn. Like-named read-outs stand apart in the source and are kept apart here.

Experiments:
[1] = tested on: aortic segments of the rat (contraction induced by PHE); test: Functional test (rat aorta): vascular reactivity on aortic rings without endothelium contracted with phenylephrine; conditions: aortic rings without endothelium contracted with PHE 10^-6 M, read-out: Relaxation (rat aorta + PHE), IC50
Description: Functional Test (Rat Aorta) Study of Vascular Reactivity on Aortic Segments of the Rat. After anaesthesia of the animal, the thoracic aorta is removed and immediately placed in a physiological saline solution (PSS). The proximal thoracic aorta is cleaned of adherent conjunctive tissue and 4 aortic rings (3-4 mm) are cut. The endothelium is removed mechanically without damaging the smooth muscle cells. The rings without endothelium are placed in PSS medium in isolated organ baths maintained at 37° C. in the presence of carbogen. The isometric tension of the rings is recorded by means of a force sensor. At their optimum tension, the rings are subjected to an equilibration period during which the physiological medium is replaced regularly. The preparations are then contracted twice by means of a hyperpotassic solution (KCl 60 mM), each of the 2 contractions being followed by successive washings in order to return to the original tension. The absence of endothelium is verified after contraction by an al-adrenergic receptor agonist, phenylephrine (PHE, 10^−6M), followed by the addition of carbachol (10^−5M), a muscarinic receptor agonist, which induces a relaxation only in the presence of endothelium. The rings are then washed regularly with PSS for 60 minutes in order to remove the pharmacological agents. The rings are recontracted with PHE (10^−6M) and then, after stabilisation of the contraction, the product or its solvent is added in cumulative concentrations, 5 concentrations are tested: 10M^−8, 10^−7M, 10^−6M, 10M^−5 and 3×10^−5M (if the product is dissolved in DMSO) or 10^−4M (if H2O is the solvent of the product). The contractile response is obtained in milligrams (mg). The results are expressed by the mean±SEM of the contractile responses obtained on at least 2 rats. The variations in tension of each product are calculated as a percentage of the maximum contraction induced by PHE before the product is added, according to the formula: % contraction B(t)=[×(mg) tension(compound)B(t)/y (mg) maximum tension (PHE)B]×100. The concentration-response curves obtained are analysed and allow the IC50 value of each product to be determined (IC50: concentration of product necessary to inhibit 50% of the maximum contraction induced by PHE), the estimation of the IC50 value of the concentration-response curves being obtained by non-linear regression.

human ROCK1 = human ROCK1 (Homo sapiens, UniProt Q13464); test: ROCK1 enzymatic test (LANCE, phosphorylation of Ulight-RRRSLLE (PLK) substrate); format: biochemical; conditions: human recombinant enzyme, 1 μM ATP, 50 nM Ulight-RRRSLLE (PLK) substrate, 30 minutes at ambient temperature; read-out: ROCK1(h), IC50
Method: Evaluation of the effects of compounds on human ROCK1 activity quantified by measuring the phosphorylation of the substrate Ulight-RRRSLLE (PLK) using a human recombinant enzyme and the LANCE® detection method.
The test compound, the reference compound or water (control) is mixed with the enzyme (8.2 ng) in a buffer comprising 40 mM Hepes/Tris (pH 7.4), 0.8 mM EGTA/Tris, 8 mM MgCl2, 1.6 mM DTT and 0.008% Tween 20.
The reaction is then started by adding 50 nM of Ulight-RRRSLLE (PLK) substrate and 1 μM of ATP, and the mixture is incubated for 30 minutes at ambient temperature. For the basal control measurements, the enzyme is excluded from the reaction mixture.
After the incubation, the reaction is stopped by adding 13 mM of EDTA. After 5 minutes, the anti-phospho-PLK antibody labelled with europium chelate is added. After a further 60 minutes, the fluorescence transfer is measured at lex=337 nm, lem=620 nm and lem=665 nm using a microplate reader (Envision, Perkin Elmer). The enzymatic activity is determined by dividing the signal measured at 665 nm by that measured at 620 nm (ratio). The results are expressed in the form of a percentage inhibition of the control enzymatic activity. The standard reference inhibition compound is staurosporine, which is tested in each experiment at several concentrations in order to obtain an inhibition curve on the basis of which the value of the IC50 (concentration that induces 50% inhibition) is calculated.

[2] = tested on: arterial pressure of spontaneously hypertensive rats (SHR); test: Evaluation on the arterial pressure in spontaneously hypertensive rats (SHR), telemetry; format: in vivo; conditions: SHR rat, maximum change of arterial pressure relative to basal
Method: The effect of the ROCK inhibitors was tested by the reduction of the arterial pressure (AP) that they induce in spontaneously hypertensive rats (SHR) after intravenous (i.v.) and/or oral administration. In summary, the SHRs were anaesthetised with 2% isoflurane, and a telemetry probe (PAC40, Data Science International) was implanted in the abdominal aorta to record the AP and a polyethylene catheter was implanted in the jugular vein for the i.v. administration. After recovery from the surgery (2 to 3 weeks), the AP was recorded continuously for 24 hours after administration of the ROCK inhibitors at doses of 1, 3, 10 and 30 mg/kg by the i.v. route and/or by the oral route. The effect on the AP was expressed as the percentage reduction relative to the basal arterial pressure before administration of the product.

[3] = IV 3 mg/kg, read-out: SHR rat ΔAP % max, IV 3 mg/kg
[4] = PO 3 mg/kg, read-out: SHR rat ΔAP % max, PO 3 mg/kg

human ROCK1, sequence (Q13464 whole entry): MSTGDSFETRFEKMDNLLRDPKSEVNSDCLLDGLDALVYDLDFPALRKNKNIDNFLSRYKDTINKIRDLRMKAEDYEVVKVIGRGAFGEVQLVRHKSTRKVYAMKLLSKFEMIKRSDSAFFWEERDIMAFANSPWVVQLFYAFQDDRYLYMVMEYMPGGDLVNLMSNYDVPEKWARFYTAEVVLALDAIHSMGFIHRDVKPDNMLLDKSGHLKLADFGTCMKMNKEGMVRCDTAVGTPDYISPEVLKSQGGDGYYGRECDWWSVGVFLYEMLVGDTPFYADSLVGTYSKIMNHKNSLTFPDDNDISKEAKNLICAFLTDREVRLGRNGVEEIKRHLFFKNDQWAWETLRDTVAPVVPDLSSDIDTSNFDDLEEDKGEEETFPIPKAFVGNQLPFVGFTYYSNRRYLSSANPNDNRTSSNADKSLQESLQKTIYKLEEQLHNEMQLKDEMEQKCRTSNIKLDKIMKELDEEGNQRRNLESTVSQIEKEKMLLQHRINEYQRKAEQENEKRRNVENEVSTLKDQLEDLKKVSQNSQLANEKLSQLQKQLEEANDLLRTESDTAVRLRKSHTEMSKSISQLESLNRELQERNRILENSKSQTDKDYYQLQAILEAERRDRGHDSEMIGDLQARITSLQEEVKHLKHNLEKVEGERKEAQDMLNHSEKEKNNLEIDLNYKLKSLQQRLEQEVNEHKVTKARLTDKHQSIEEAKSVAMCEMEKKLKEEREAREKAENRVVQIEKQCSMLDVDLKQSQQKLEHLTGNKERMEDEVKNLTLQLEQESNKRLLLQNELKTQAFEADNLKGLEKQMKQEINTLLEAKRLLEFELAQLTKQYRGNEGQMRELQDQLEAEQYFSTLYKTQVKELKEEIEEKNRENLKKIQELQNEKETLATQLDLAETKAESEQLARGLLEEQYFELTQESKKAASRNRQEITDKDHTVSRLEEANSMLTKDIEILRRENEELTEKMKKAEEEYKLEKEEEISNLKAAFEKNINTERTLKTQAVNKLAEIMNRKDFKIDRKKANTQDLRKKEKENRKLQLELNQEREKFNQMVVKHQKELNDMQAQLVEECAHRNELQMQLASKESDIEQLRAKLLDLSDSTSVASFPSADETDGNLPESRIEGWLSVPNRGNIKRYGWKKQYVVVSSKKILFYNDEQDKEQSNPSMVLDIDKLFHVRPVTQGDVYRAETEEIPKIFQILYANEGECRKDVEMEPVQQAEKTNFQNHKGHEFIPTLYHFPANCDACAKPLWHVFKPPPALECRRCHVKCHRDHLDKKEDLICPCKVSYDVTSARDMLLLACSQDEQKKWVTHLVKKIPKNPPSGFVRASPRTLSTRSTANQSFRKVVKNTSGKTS

Row | Structure (SMILES) | IC50 [1] [nM] | IC50 (human ROCK1) [nM] | change in vivo at 3 mg/kg [2, 3] [%] | change in vivo at 3 mg/kg [2, 4] [%]
1 | C[C@H](N)c1cc(F)c(C(O)c2cccc3cnccc23)c(F)c1 (single isomer, unassigned; enantiomer 1) [Product P21] | 1000 |  |  | 
2 | CC(NCCO)c1cc(F)c(C(=O)c2cccc3c(=O)[nH]ccc23)c(F)c1 (stereo not drawn) [Product P48, 5-(2,6-Difluoro-4-{1-[(2-hydroxyethyl)amino]ethyl}benzoyl)isoquinolin-1(2H)-one hydrochloride] | 150 | 7.45 | -67.3 | -29.2
3 | CC(N)c1cc(F)c(C(=O)c2cccc3cnccc23)c(F)c1 (stereo not drawn) [Product P6, [4-(1-Aminoethyl)-2,6-difluorophenyl](isoquinolin-5-yl)methanone dihydrochloride] | 200 |  | -73.4 | -35.6
4 | COc1c(C(C)N)ccc(C(=O)c2cccc3c(=O)[nH]ccc23)c1F (stereo not drawn) [Product P42, 5-[4-(1-Aminoethyl)-2-fluoro-3-methoxybenzoyl]isoquinolin-1(2H)-one hydrochloride] | 200 | 9.6 | -59.9 | -12.3
5 | NCC1CCOc2c(C(=O)c3cccc4c(=O)[nH]ccc34)cccc21 (stereo not drawn) [Product P139, 5-{[4-(Aminomethyl)-3,4-dihydro-2H-chromen-8-yl]carbonyl}isoquinolin-1(2H)-one hydrochloride] | 2000 | 87.5 |  | 
6 | CC(C)(N)c1cc(F)c(C(=O)c2cccc3c(=O)[nH]ccc23)c(F)c1 [Product P27, 5-[4-(2-Aminopropan-2-yl)-2,6-difluorobenzoyl]isoquinolin-1(2H)-one hydrochloride] | 50 | 8.7 | -69 | -54
7 | Cc1cc([C@@H](C)N)ccc1C(=O)c1cccc2c(=O)[nH]ccc12 [Product P47, 5-{4-[(1R)-1-Aminoethyl]-2-methylbenzoyl}isoquinolin-1(2H)-one hydrochloride] | 40 | 6.78 | -62.7 | -26.4
8 | Cc1c[nH]c(=O)c2cccc(C(=O)c3c(F)cc([C@@H](C)N)cc3F)c12 [Product P50, 5-{4-[(1R)-1-Aminoethyl]-2,6-difluorobenzoyl}-4-methylisoquinolin-1(2H)-one hydrochloride] | 100 | 5.4 | -58 | -16.8
9 | CC(C)(N)c1cc(F)c(C(=O)c2cccc3cnccc23)c(F)c1 [Product P24, [4-(2-Aminopropan-2-yl)-2,6-difluorophenyl](isoquinolin-5-yl)methanone dihydrochloride] | 10 | 23 | -68.2 | -52.5
10 | NC1CCc2c1cc(F)c(C(=O)c1cccc3c(=O)[nH]ccc13)c2F (stereo not drawn) [Product P58, 5-[(1-Amino-4,6-difluoro-2,3-dihydro-1H-inden-5-yl)carbonyl]isoquinolin-1(2H)-one hydrochloride] | 70 | 3.85 | -65.1 | -52.7
11 | C[C@@H](N)c1ccc(F)c(C(=O)c2cccc3c(=O)[nH]ccc23)c1F [Product P56, 5-{3-[(1R)-1-Aminoethyl]-2,6-difluorobenzoyl}isoquinolin-1(2H)-one hydrochloride] | 150 | 16.5 | -54.7 | 

Continued by falling IC50 [1], values first:

Row | IC50 [1] [nM] | IC50 (human ROCK1) [nM] | Structure (SMILES) | change in vivo at 3 mg/kg [2, 3] [%] | change in vivo at 3 mg/kg [2, 4] [%]
12 | 2000 | 20.5 | NC(CC1CCCCC1)c1cc(F)c(C(=O)c2cccc3c(=O)[nH]ccc23)c(F)c1 (stereo not drawn) [Product P129, 5-[4-(1-Amino-2-cyclohexylethyl)-2,6-difluorobenzoyl]isoquinolin-1(2H)-one hydrochloride] | -30.2 | -18.4
13 | 550 | 1.95 | N[C@@H]1CCc2cc(F)c(C(=O)c3cccc4c(=O)[nH]ccc34)c(F)c21 [Product P59, 5-{[(3R)-3-Amino-4,6-difluoro-2,3-dihydro-1H-inden-5-yl]carbonyl}isoquinolin-1(2H)-one hydrochloride] | -40.3 | 
14 | 230 | 63 | CC(N)c1cc(F)c(Cc2cccc3cnccc23)c(F)c1 (stereo not drawn) [Product P19, 1-[3,5-Difluoro-4-(isoquinolin-5-ylmethyl)phenyl]ethanamine dihydrochloride] | -39.6 | 
15 | 200 | 10.4 | O=C(c1c(F)cc(C2CCCCN2)cc1F)c1cccc2c(=O)[nH]ccc12 (stereo not drawn) [Product P75, 5-[2,6-Difluoro-4-(piperidin-2-yl)benzoyl]isoquinolin-1(2H)-one hydrochloride] | -49.8 | -12.4
16 | 170 | 5.35 | C[C@@H](N)c1ccc(C(=O)c2cccc3c(=O)[nH]ccc23)c2c1OCCO2 [Product P61, 5-({8-[(1R)-1-Aminoethyl]-2,3-dihydro-1,4-benzodioxin-5-yl}carbonyl)isoquinolin-1(2H)-one hydrochloride] | -59 | 
17 | 100 | 5 | C[C@@H](N)c1ccc(C(=O)c2cccc3c(=O)[nH]ccc23)c2c1CCCO2 [Product P45, 5-({5-[(1R)-1-Aminoethyl]-3,4-dihydro-2H-chromen-8-yl}carbonyl)isoquinolin-1(2H)-one hydrochloride] | -60.6 | -24
18 | 33 | 5.87 | C[C@@H](N)c1cc(F)c(C(=O)c2cccc3cnccc23)c(F)c1 [Product P9, {4-[(1R)-1-Aminoethyl]-2,6-difluorophenyl}(isoquinolin-5-yl)methanone dihydrochloride] | -67 | -53.7
19 | 14 | 4.2 | CC(N)c1cc(F)c(C(=O)c2cccc3c(O)nccc23)c(F)c1 (stereo not drawn) [Product P17, [4-(1-Aminoethyl)-2,6-difluorophenyl](1-hydroxyisoquinolin-5-yl)methanone hydrochloride] | -72.8 | -56.6
